Test results taken from patent US20260184663A1, “INDENE COMPOUNDS, PHARMACEUTICAL COMPOSITIONS THEREOF, AND THEIR THERAPEUTIC APPLICATIONS” (NucMito Pharmaceuticals co. Ltd., priority 2022, published 2026).

Experiments:
Format in all cases: cell-based
[1] = tested on: A549 (lung adenocarcinoma); experiment: Antiproliferative activity (CCK-8 cell viability), A549; conditions: Homo sapiens, 72 h; for inhibition at 3.3 µM: Compound concentration: 3.3 μM; for inhibition at 3.3 µM / inhibition at 10 µM: read-out: Antiproliferative activity in cancerous cells, A549 (inhibition of cell growth); for inhibition at 10 µM: Compound concentration: 10 μM; for inhibition at 30 µM: Compound concentration: 30 μM, read-out: Antiproliferative activity in cancerous cells, A549
Summary of the method: (§1)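 Cells were seeded at 2,000-5,000/well (HeLa in MEM, HepG2 and SW480 in DMEM, A549 in F-12K, all with 10% FBS) and treated with compound at 3.3, 10 or 30 μM for 72 h at 37° C. CCK-8 was added for 4 h, absorbance was read at 450 nm, and viability was expressed relative to DMSO-treated wells.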

SW480 (colon cancer) = experiment: Antiproliferative activity (CCK-8 cell viability), SW480; conditions: Homo sapiens, 72 h; for inhibition at 3.3 µM: Compound concentration: 3.3 μM; for inhibition at 3.3 µM / inhibition at 10 µM: read-out: Antiproliferative activity in cancerous cells, SW480 (inhibition of cell growth); for inhibition at 10 µM: Compound concentration: 10 μM; for inhibition at 30 µM: Compound concentration: 30 μM, read-out: Antiproliferative activity in cancerous cells, SW480
Summary of the method: as §1

HepG2 (liver cancer) = experiment: Antiproliferative activity (CCK-8 cell viability), HepG2; conditions: Homo sapiens, 72 h; for inhibition at 3.3 µM: Compound concentration: 3.3 μM; for inhibition at 3.3 µM / inhibition at 10 µM: read-out: Antiproliferative activity in cancerous cells, HepG2 (inhibition of cell growth); for inhibition at 10 µM: Compound concentration: 10 μM
Summary of the method: as §1

HeLa (cervical cancer) = experiment: Antiproliferative activity (CCK-8 cell viability), HeLa; conditions: Homo sapiens, 72 h, read-out: Antiproliferative activity in cancerous cells, HELA (inhibition of cell growth); for inhibition at 3.3 µM: Compound concentration: 3.3 μM; for inhibition at 10 µM: Compound concentration: 10 μM
Summary of the method: as §1

[2] = tested on: MDA-MB-231 (breast cancer); experiment: Antiproliferative activity (CCK-8 cell viability), MDA-MB-231; conditions: Homo sapiens, 72 h; for inhibition at 3.3 µM: Compound concentration: 3.3 μM; for inhibition at 3.3 µM / inhibition at 10 µM: read-out: Antiproliferative activity in cancerous cells, MDA-MB-231 (inhibition of cell growth); for inhibition at 10 µM: Compound concentration: 10 μM; for inhibition at 30 µM: Compound concentration: 30 μM, read-out: Antiproliferative activity in cancerous cells, MDA-MB-231
Summary of the method: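 In this CCK-8 viability assay, MDA-MB-231 cells maintained in Dulbecco's modified Eagle's medium containing 10% fetal bovine serum were placed in 96-well plates (2,000-5,000 cells/well) and treated with compound for 72 h at 37° C. A 4 h incubation with 10 μL CCK-8 followed, plates were read at 450 nm, and viability was expressed against DMSO vehicle wells across replicates.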

[3] = tested on: A431 (epidermoid carcinoma); experiment: Antiproliferative activity (CCK-8 cell viability), A431; conditions: Homo sapiens, 72 h; for inhibition at 3.3 µM: A-431, Compound concentration: 3.3 μM; for inhibition at 3.3 µM / inhibition at 10 µM: read-out: Antiproliferative activity in cancerous cells, A431 (inhibition of cell growth); for inhibition at 10 µM: A-431, Compound concentration: 10 μM; for inhibition at 30 µM: A-431, Compound concentration: 30 μM, read-out: Antiproliferative activity in cancerous cells, A431
Summary of the method: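 Cell viability of compound-treated A431 cells was measured with a Cell Counting Kit-8. Each well received 10 μL of CCK-8 after 72 h of compound exposure, followed by 4 h incubation at 37° C. and a 450 nm plate-reader measurement. Percent viability was calculated relative to DMSO controls across replicates.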

[4] = tested on: B16F10 (malignant melanoma); experiment: Antiproliferative activity (CCK-8 cell viability), B16F10; conditions: Mus musculus, 72 h, read-out: Antiproliferative activity in cancerous cells, B16F10 (inhibition of cell growth); for inhibition at 3.3 µM: B16-F10, Compound concentration: 3.3 μM; for inhibition at 10 µM: B16-F10, Compound concentration: 10 μM
Summary of the method: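 Attached B16F10 cells in 96-well plates were incubated with compound at 37° C for 72 h, followed by 10 μL CCK-8 reagent per well and a further 4 h incubation. A multi-well plate reader measured absorbance at 450 nm. Percent viability across replicates was calculated against DMSO vehicle-treated cells.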

Compound | inhibition at 3.3 µM [1] | inhibition at 10 µM [1] | inhibition at 30 µM [1] | inhibition at 3.3 µM (SW480 (colon cancer)) | inhibition at 10 µM (SW480 (colon cancer)) | inhibition at 30 µM (SW480 (colon cancer)) | inhibition at 3.3 µM (HepG2 (liver cancer)) | inhibition at 10 µM (HepG2 (liver cancer)) | inhibition at 30 µM (HepG2 (liver cancer); Compound concentration: 30 μM, read-out: Antiproliferative activity in cancerous cells, HepG2) | inhibition at 3.3 µM (HeLa (cervical cancer)) | inhibition at 10 µM (HeLa (cervical cancer)) | inhibition at 3.3 µM [2] | inhibition at 10 µM [2] | inhibition at 3.3 µM [3] | inhibition at 10 µM [3] | inhibition at 30 µM [3] | inhibition at 3.3 µM [4] | inhibition at 10 µM [4] | inhibition at 30 µM [2]
COc1ccc2c(c1)C(CC(=O)O)=C(C)/C2=C/c1ccc(COc2ccc(F)cc2)cc1 [B54, (Z)-2-(1-(4-((4-Fluorophenoxy)methyl)benzylidene)-5-methoxy-2-methyl-1H-inden-3-yl)acetic acid] | < 30% | 30 to 50% | 30 to 50% | < 30% | < 30% | < 30% | < 30% | < 30% | 30 to 50% | ≥ 50% | ≥ 50% | 30 to 50% | ≥ 50% | 30 to 50% | 30 to 50% | 30 to 50% | ≥ 50% | ≥ 50% | 
CC1=C(CC(=O)O)c2cc(F)ccc2/C1=C\c1ccc(Oc2ccc(Cl)cc2)cc1 [C60, (Z)-2-(1-(4-(4-Chlorophenoxy)benzylidene)-5-fluoro-2-methyl-1H-inden-3-yl)acetic acid] | 30 to 50% | ≥ 50% |  | < 30% | < 30% | 30 to 50% | ≥ 50% | ≥ 50% |  | ≥ 50% | ≥ 50% | < 30% | < 30% | ≥ 50% | ≥ 50% |  | 30 to 50% | 30 to 50% | 
CC1=C(CC(=O)O)c2cc(F)ccc2/C1=C\c1ccc(Oc2ccc(Cl)cc2C)cc1 [C55, (Z)-2-(1-(4-(4-Chloro-2-methylphenoxy)benzylidene)-5-fluoro-2-methyl-1H-inden-3-yl)acetic acid] | < 30% | < 30% |  | < 30% | ≥ 50% |  | < 30% | ≥ 50% |  | ≥ 50% | ≥ 50% | < 30% | ≥ 50% | 30 to 50% | ≥ 50% |  | ≥ 50% | ≥ 50% | 
CC1=C(CC(=O)O)c2cc(Cl)ccc2/C1=C\c1ccc(COc2ccc(F)cc2)cc1 [B57, (Z)-2-(5-Chloro-1-(4-((4-fluorophenoxy)methyl)benzylidene)-2-methyl-1H-inden-3-yl)acetic acid] | < 30% | < 30% | < 30% | < 30% | < 30% | < 30% | < 30% | 30 to 50% |  | < 30% | ≥ 50% | < 30% | < 30% | 30 to 50% | 30 to 50% | 30 to 50% | ≥ 50% | 30 to 50% | < 30%
CC1=C(CC(=O)O)c2cc(C)ccc2/C1=C\c1ccc(COc2ccc(C(F)(F)F)cc2)cc1 [B59, (Z)-2-(2,5-Dimethyl-1-(4-((4-(trifluoromethyl)phenoxy)methyl)benzylidene)-1H-inden-3-yl)acetic acid] | < 30% | 30 to 50% | 30 to 50% | < 30% | 30 to 50% |  | < 30% | < 30% |  | 30 to 50% | 30 to 50% | < 30% | < 30% | ≥ 50% | ≥ 50% |  | 30 to 50% | ≥ 50% | < 30%
